Measured values published in ChEMBL document CHEMBL4813985, “Lead optimization generates selenium-containing miconazole CYP51 inhibitors with improved pharmacological profile for the treatment of fungal infections” (Eur J Med Chem, 2021).
Converted amounts (≈) assume the structure as drawn.

Columns and labels:
MDA-MB-231 = experiment: Cytotoxicity against human MDA-MB-231 cells assessed as reduction in cell viability incubated for 96 hrs by MTT assay; conditions: MDA-MB-231, 96 h
[1] = Metabolic stability in mouse liver microsomes assessed as clearance; assay type: ADME, Microsome; conditions: read-out: CLH
Aspergillus fumigatus = experiment: Antifungal activity against Aspergillus fumigatus CMGCC3.7795 measured after 72 hrs by broth microdilution assay; assay type: functional
Candida albicans [2] = experiment: Antifungal activity against Candida albicans CPCC400616 measured after 24 hrs by broth microdilution assay; assay type: functional
Candida albicans [3] = experiment: Potency index, ratio of fluconazole MIC to test compound MIC for Candida albicans CPCC400616 measured after 24 hrs by broth microdilution assay; assay type: functional
[Candida] zeylanoides = Antifungal activity against Candida zeylanoides CMGCC2.3739 measured after 24 hrs by broth microdilution assay; assay type: functional; conditions: Dujonia zeylanoides
Candida albicans [4] = experiment: Antifungal activity against fluconazole-resistant Candida albicans 901 assessed as inhibition of microbial growth after 24 hrs by broth microdilution method; assay type: functional
Candida albicans [5] = experiment: Anti-biofilm activity in Candida albicans CPCC400616 assessed as inhibition of biofilm formation incubated for 24 hrs with 24 hrs precultured fungal suspension by XTT assay; assay type: functional
Cryptococcus neoformans = experiment: Antifungal activity against Cryptococcus neoformans CMGCC2.3161 measured after 72 hrs by broth microdilution assay; assay type: functional
[6] = Hemolytic activity in rabbit RBC assessed as hemolysis ratio at 8 ug/ml measured after 3 hrs by microplate reader assay relative to control; assay type: ADME, cell-based, Oryctolagus cuniculus, Erythrocyte; conditions: rabbit red blood cells (erythrocytes), at 8 µg/mL, read-out: Activity
MCF-10A = experiment: Cytotoxicity against human MCF-10A cells assessed as reduction in cell viability incubated for 96 hrs by MTT assay; assay type: cell-based; conditions: read-out: IC50
Pichia kudriavzevii = experiment: Antifungal activity against Candida krusei AS2.1045 measured after 24 hrs by broth microdilution assay; assay type: functional
Candida albicans [7] = experiment: Antifungal activity against fluconazole-resistant Candida albicans 17# assessed as inhibition of microbial growth after 24 hrs by broth microdilution method; assay type: functional
[8] = Hemolytic activity in rabbit RBC assessed as hemolysis ratio at 2 ug/ml measured after 3 hrs by microplate reader assay relative to control; assay type: ADME, cell-based, Oryctolagus cuniculus, Erythrocyte; conditions: rabbit red blood cells (erythrocytes), at 2 µg/mL, read-out: Activity
PC-3 = experiment: Cytotoxicity against human PC3 cells assessed as reduction in cell viability incubated for 96 hrs by MTT assay; assay type: cell-based; conditions: PC-3, 96 h, read-out: IC50
Candida parapsilosis = experiment: Antifungal activity against Candida parapsilosis ATCC 22019 measured after 24 hrs by broth microdilution assay; assay type: functional; conditions: Lodderomyces parapsilosis
Candida albicans [9] = experiment: Anti-biofilm activity in Candida albicans CPCC400616 assessed as inhibition of biofilm formation incubated for 24 hrs with 3 hrs precultured fungal suspension by XTT assay; assay type: functional
Candida albicans [10] = experiment: Antifungal activity against fluconazole-resistant Candida albicans CaR assessed as inhibition of microbial growth after 24 hrs by broth microdilution method; assay type: functional
Candida albicans [11] = experiment: Fungicidal activity against Candida albicans CPCC400616 assessed as fungal killing incubated for 48 hrs followed by culturing on PDA plate for 24 hrs; assay type: functional; conditions: time 72 hrs
[12] = Metabolic stability in mouse liver microsomes assessed as half life; assay type: ADME, Microsome
Candida albicans [13] = experiment: Anti-biofilm activity in Candida albicans CPCC400616 assessed as inhibition of biofilm formation incubated for 24 hrs with 6 hrs precultured fungal suspension by XTT assay; assay type: functional
Nakaseomyces glabratus = experiment: Antifungal activity against Candida glabrata measured after 24 hrs by broth microdilution assay; assay type: functional
HL-60 = experiment: Cytotoxicity against human HL-60 cells assessed as reduction in cell viability incubated for 96 hrs by MTT assay; assay type: cell-based; conditions: HL-60, 96 h
Candida albicans [14] = experiment: Antifungal activity against fluconazole-resistant Candida albicans 904 assessed as inhibition of microbial growth after 24 hrs by broth microdilution method; assay type: functional
[15] = Hemolytic activity in rabbit RBC assessed as hemolysis ratio at 1 ug/ml measured after 3 hrs by microplate reader assay relative to control; assay type: ADME, cell-based, Oryctolagus cuniculus, Erythrocyte; conditions: rabbit red blood cells (erythrocytes), at 1 µg/mL, read-out: Activity
[16] = Hemolytic activity in rabbit RBC assessed as hemolysis ratio at 16 ug/ml measured after 3 hrs by microplate reader assay relative to control; assay type: ADME, cell-based, Oryctolagus cuniculus, Erythrocyte; conditions: rabbit red blood cells (erythrocytes), at 16 µg/mL, read-out: Activity
Candida albicans [17] = experiment: Antifungal activity against fluconazole-resistant Candida albicans 632 assessed as inhibition of microbial growth after 24 hrs by broth microdilution method; assay type: functional
Candida albicans [18] = experiment: Antifungal activity against Candida albicans ATCC SC5314 measured after 24 hrs by broth microdilution assay; assay type: functional
Candida albicans [19] = experiment: Anti-biofilm activity in Candida albicans CPCC400616 assessed as inhibition of biofilm formation incubated for 24 hrs with 1.5 hrs precultured fungal suspension by XTT assay; assay type: functional
[20] = Hemolytic activity in rabbit RBC assessed as hemolysis ratio at 4 ug/ml measured after 3 hrs by microplate reader assay relative to control; assay type: ADME, cell-based, Oryctolagus cuniculus, Erythrocyte; conditions: rabbit red blood cells (erythrocytes), at 4 µg/mL, read-out: Activity

For `CCc1ccccc1[Se]C(Cn1ccnc1)c1ccc(F)cc1F` (centres undefined), the IC50 (MDA-MB-231) was 26.2 µM, the CLint scaled [1] was 368 mL/min/kg and the MIC (Aspergillus fumigatus) was 16 µg/mL (≈ 40.9 µM). For the same molecule, the MIC (Candida albicans [2]) was 0.06 µg/mL (≈ 0.153 µM), the Ratio (Candida albicans [3]) was 8 and the MIC ([Candida] zeylanoides) was 0.25 µg/mL (≈ 0.639 µM). The MIC (Candida albicans [4]) was 2 µg/mL, the MIC50 (Candida albicans [5]) was over 128 µg/mL and the MIC80 (Candida albicans [5]) was over 128 µg/mL. The MIC (Cryptococcus neoformans) was 1 µg/mL (≈ 2.56 µM), the hemolysis at 3 h, 8 ug/ml [6] was 100% and the IC50 (MCF-10A) was 28.1 µM. For the same molecule, the MIC (Pichia kudriavzevii) was 0.06 µg/mL (≈ 0.153 µM), the MIC (Candida albicans [7]) was 0.5 µg/mL and the hemolysis at 3 h, 2 ug/ml [8] was 0%. For the same molecule, the IC50 (PC-3) was 30.2 µM, the MIC (Candida parapsilosis) was 0.03 µg/mL (≈ 0.0767 µM) and the MIC50 (Candida albicans [9]) was 16 µg/mL (≈ 40.9 µM). The MIC80 (Candida albicans [9]) was over 128 µg/mL, the MIC (Candida albicans [10]) was 0.5 µg/mL and the MFC99 (Candida albicans [11]) was 0.25 µg/mL (≈ 0.639 µM). It also gave a half-life [12] of 14.9 min, an MIC50 (Candida albicans [13]) of over 128 µg/mL and an MIC80 (Candida albicans [13]) of over 128 µg/mL. The MIC (Nakaseomyces glabratus) was 0.5 µg/mL (≈ 1.28 µM), the IC50 (HL-60) was 16.9 µM and the MIC (Candida albicans [14]) was 0.5 µg/mL. The hemolysis at 3 h, 1 ug/ml [15] was 0%, the hemolysis at 3 h, 16 ug/ml [16] was 100% and the MIC (Candida albicans [17]) was 1 µg/mL. The MIC (Candida albicans [18]) was 0.03 µg/mL (≈ 0.0767 µM), the MIC50 (Candida albicans [19]) was 8 µg/mL (≈ 20.4 µM) and the MIC80 (Candida albicans [19]) was 128 µg/mL (≈ 327 µM). The hemolysis at 3 h, 4 ug/ml [20] was 93.6%.
